From patent publication US9586994B2, “CD44V6-derived peptides for treating breast cancer” (KARLSRUHER INSTITUT FÜR TECHNOLOGIE, priority 2012, dated 2017)

What was measured:
CD44v6 [1] = target: T1, CD44v6 (Homo sapiens, UniProt P16070); test: Peptide blocking of EGF/TGFα-induced Erk phosphorylation in MCF7 cells (Western blot); format: cell-based; conditions: peptide 100 ng/ml
T1 construct: endogenous in cells; host or cells: MCF7; MCF10A
Method: 3×10^5 were seeded per well of a 6-well plate and serum-starved for 24 hours. Afterwards the medium inside of each well was reduced to 1 ml and the respective peptide (v6 (both peptides of SEQ ID No.: 2 and 6 were tested), or ctrl peptide) was added at a concentration of 100 ng/ml. The cells then were incubated together with the peptide at 37° C. for 5 mins. Ligand concentration for all peptide blocking experiments was 20 ng/ml.
To assay protein expression via Western blot cells were washed 1× with PBS and afterwards lysed in 2×Laemmli sample buffer (160 mM Tris-HCl pH 6.8, 4% SDS, 16% glycerol, 0.1M DTT, 0.01% bromphenol blue). The sample was sheared through a 26 gauge needle. In succession the lysates were boiled for 5 mins at 99° C. in order to denature the proteins in the sample and then spun down at 10 000 rmp for 1 min Eventually the samples were loaded onto an SDS-PAGE gel.
To test whether CD44v6 acts as a co-receptor in MCF7 or MCF10A cells, a peptide blocking experiment using peptides of SEQ ID NO: 6 was conducted. The cells were serum-starved for 24 h and then pre-incubated with a v6 peptide or an unspecific control peptide. Then, the cells were induced with EGF or HGF as a control. As a read-out for ErbB-activation, the phosphorylation of the Erk-kinase was used.

CD44v6 [2] = test: HGF-induced activation of Met and ERK in L3.6pl cells (Western blot); format: cell-based, human; conditions: peptide before induction with 10 ng/ml HGF
Method: Serum-starved cells (24 hours) were induced with the growth factor HGF (10 ng/mL) at 37° C. for 5 minutes. Where indicated, the cells were treated with peptides (100 ng/ml) prior to induction at 37° C. for 10 minutes (100 ng/mL CD44v6 peptide or control peptide). Following the induction with HGF, cells were washed with ice-cold phosphate-buffered saline (PBS). To detect activated Met and ERK, cells were lysed in sodium dodecyl sulfate (SDS)—sample buffer containing 100 mM dithiothreitol (DTT), boiled and subjected to western blot analysis using antibodies against phospho-Met and ERK. The loading controls were performed on the same blot after stripping (62.5 mM Tris, pH 6.8, 2% SDS, 0.8% DTT) by probing with the Met respectively Erk antibody. Blots were stained using the enhanced chemiluminescence system (Thermo Fisher Scientific, Schwerte, Germany). Bands in western blot analysis were quantified with the program Image J (National Institutes of Health).
To expand the studies to human pancreatic tumors, the highly metastatic human pancreatic carcinoma cells L3.6pl (Bruns, et al. Neoplasia (1999), 1(1):50-62) were investigated. These cells originate from the […] cells that have been passaged several times in the liver and the pancreas, a step that rendered them more and more metastatic. It was confirmed that Met is dependent on CD44v6 for its activation and signaling in these cells (FIG. 19A). The L3.6pl cells were treated with HGF in the presence or absence of a human v6 peptide of SEQ ID NO: 2 or SEQ ID NO:6 and Met activation and downstream signaling to ERK was measured. Phosphorylation of both Met and ERK was inhibited by the human v6 peptide. Treatment with a corresponding rat v6 peptide (ctrl peptide, SEQ ID NO: 10 or 11) had no influence on receptor activation and signal transduction (FIG. 19A).
The contribution of CD44v6 to Met signaling in the human epithelial pancreatic cancer cells L3.6pl (derived from Colo 357), the cervix carcinoma cells HeLa and the colon cancer cells HT29 were analysed using the CD44v6 peptide (v6 14mer; v6 5mer tested as well, data not shown).

L3.6pl cells [3] = test: Human orthotopic pancreatic cancer model, L3.6pl cells in nude mice, treatment from day 7; format: in vivo, mouse
Method: In the case of the human orthotopic model, L3.6pl pancreatic carcinoma cells (passage 24-26) were suspended in Hank's balanced salt solution (Invitrogen, Karlsruhe, Germany) after trypsinization. The cells were injected orthotopically in the pancreas of male nude mice as described (Bruns C J et al. (1999) Neoplasia 1(1):50-62). Two groups of 15 mice each were injected i.p. 7 days later with either the human v6 peptide respectively rat control peptide (20 μg). For all experiments described and depicted herein either the rat 14mer control peptide or the human 14mer peptide were used. All experiments were then repeated with the rat 5mer control peptide or the human 5mer peptide (N-R-W-H-E, SEQ ID NO: 2). […] The injection was repeated three times per week for 21 days. Two days after the last treatment the animals were killed.
7 μm thick paraffin sections were deparaffinized and rehydrated. For P-Met staining antigen unmasking was achieved by boiling the slides in 1 mM EDTA pH 8.0 followed by incubation for 15 minutes at a sub-boiling temperature, for CD31 staining the sections were treated with Proteinase K (8 μg/ml) for […] at 37° C. For immunofluorescence staining of P-Met, unspecific binding was blocked with 5% goat serum (DAKO, Glostrup, Denmark) (diluted in 1×PBS/0.3% Triton X-100) for 60 minutes. In the case of immunohistochemistry, endogenous peroxidases were at first blocked with 3% H2O2 in PBS followed by incubation with biotin blocking system (Dako, Glostrup, Denmark) and then unspecific binding was inhibited by incubation with 5% FCS in PBS was used for blocking. The sections were incubated with the P-Met antibody (D26, dilution 1:50 in 1×PBS/1% BSA/0.3% Triton X-100), Met antibody (C-28, dilution 1:50), GFP antibody (sc-101525, dilution 1:50) or CD31 antibody (5 μg/ml) over night or VFF18 (5 μg/ml) o/n at 4° C. After washing in PBS the sections were incubated with Alexa Fluor R 546 goat anti-rabbit (in case of immunofluorescence P-Met and Met staining, dilution 1:500) or a biotinylated secondary antibody (for immunohistochemical stainings rabbit anti-rat antibody for VFF18 and CD31, goat anti-rabbit for P-Met, cleaved Caspase-3 and cleaved Caspase-8 and rabbit anti-mouse for GFP, dilution 1:500) for 45 minutes. For DAB staining the sections were treated with a streptavidin-peroxidase conjugate (Dako, Glostrup, Denmark) and developed with DAB (3,3′-diaminobenzidine) substrate system (3,3′-diaminobenzidine; Biozol, Eching, Germany) For immunofluorescence DAPI was used for nuclear staining.
To test the effect of the peptide on tumor growth and metastasis formation the L3.6pl cells were orthotopically injected into the pancreas of immunosuppressed mice (NCI-nu). […] The primary tumor expresses a high amount of CD44v6 (FIG. 19B). […] Indeed, human HGF in a concentration of 3375 pg/ml was detected in the supernatant (see Material and Methods) after 5 days of culture (data not shown).

L3.6pl cells [4] = test: Regression of already established metastases, L3.6pl orthotopic mouse model; format: in vivo; conditions: nude mice, orthotopic L3.6pl, treatment from week 3 for three weeks; human v6 peptide or rat control peptide 20 μg i.p.
Method: In order to examine the regression of metastases (either BSp73ASs6 or L3.6pl) were implanted as described above. Tumor growth was allowed for three weeks. At that time all animals had developed metastases in the control group. Animals were injected i.p. with 20 μg (L3.6pl orthotopic mouse model: human v6 peptide or rat control peptide) or i.v. with 200 μg (rat syngeneic model: rat v6 peptide or mouse control peptide) of peptides three times per week. Animals were killed 23 days after the start of the peptide treatment.
The specific binding of the CD44v6 peptides to specific areas of the lungs in the rat system and of the liver in the human model raises the question whether these peptides might have an effect on already established metastases. In the experiments described in FIGS. 17 and 19 the peptides were applied early after injection of the tumor cells and repressed completely the establishment of metastases. In order to measure the effect of the CD44v6 peptide on already established metastases, other experimental settings were used. BSp73ASs6 cells were injected subcutaneously into syngeneic rats and L3.6pl cells orthotopically into male nude mice and allowed to grow for 3 weeks. […]

T1 sequence (P16070 21-742): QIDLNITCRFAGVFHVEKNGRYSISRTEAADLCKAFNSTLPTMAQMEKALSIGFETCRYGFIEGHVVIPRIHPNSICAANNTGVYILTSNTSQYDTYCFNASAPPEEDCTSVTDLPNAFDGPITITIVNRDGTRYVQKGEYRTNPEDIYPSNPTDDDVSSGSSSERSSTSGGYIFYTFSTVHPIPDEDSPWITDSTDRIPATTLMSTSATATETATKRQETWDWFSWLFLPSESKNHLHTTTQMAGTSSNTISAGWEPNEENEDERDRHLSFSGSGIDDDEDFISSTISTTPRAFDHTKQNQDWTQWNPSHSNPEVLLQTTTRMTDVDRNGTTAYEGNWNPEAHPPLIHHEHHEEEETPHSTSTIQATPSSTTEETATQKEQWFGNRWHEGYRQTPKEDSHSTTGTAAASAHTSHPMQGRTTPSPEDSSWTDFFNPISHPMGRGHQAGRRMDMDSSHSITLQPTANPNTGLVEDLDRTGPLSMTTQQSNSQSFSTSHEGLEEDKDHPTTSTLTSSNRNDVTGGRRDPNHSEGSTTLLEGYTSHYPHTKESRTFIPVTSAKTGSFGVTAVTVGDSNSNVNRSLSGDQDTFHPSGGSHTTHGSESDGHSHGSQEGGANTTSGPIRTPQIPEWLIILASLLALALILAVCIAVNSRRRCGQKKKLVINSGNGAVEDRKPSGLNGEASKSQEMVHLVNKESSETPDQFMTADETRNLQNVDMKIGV

Substance: NRWHE [SEQ ID NO: 2, human CD44v6 5mer peptide]
- EGF-induced activation of the ErbB receptors (Erk phosphorylation) (CD44v6 [1]; MCF7, serum-starved, EGF 20 ng/ml): blocking of Erk phosphorylation
- Erk phosphorylation upon TGFα induction (CD44v6 [1]; MCF7, TGFα 20 ng/ml): not upon TGFα induction
- HGF-induced phosphorylation/activation of ERK (CD44v6 [2]): inhibited
- HGF-induced phosphorylation/activation of Met (CD44v6 [2]): inhibited
- Outcome of all experiments repeated with 5mer peptides, compared with 14mer (L3.6pl cells [3]; L3.6pl orthotopic model, 5mer instead of 14mer): same results as for the 14mer peptides
- Metastasis formation (liver) (L3.6pl cells [3]; nude mice, orthotopic L3.6pl, 20 μg i.p. three times per week): capable of inhibiting metastasis
- Presence of metastases (liver) after treatment of established metastases (L3.6pl cells [4]): eliminate already established metastases
